From PMC12587545, “Noncytotoxic polymyxin derivatives enhance antibiotic action against multidrug-resistant Gram-negative bacteria” (Antimicrobial Agents and Chemotherapy, 2025)
Values joined by “and” are separate entries in the source; they are usually repeats but may differ in a detail not shown here. Equal values may be shown once.

Legend:
[1] = tested on: P. aeruginosa; assay: Checkerboard assay (antibiotic potentiation); type: cell-based, Pseudomonas aeruginosa; conditions: for MICantibiotic: antibiotic alone
Description: (§1) The interaction between the compounds and the antibiotics was evaluated using the fractional inhibitory concentration (FIC) index. FIC indices of ≤0.5 is synergistic, 0.5 < × ≤ 4 is additive, whereas >4 is antagonistic ([34]).
(§2) Synergy was measured by the FIC index, which is the summation of the individual FICs of the antibiotic and the compound. The FIC is calculated by dividing the MIC of one agent in the presence of another by the MIC of the agent alone. […] The FBS studies were conducted by following a previously published protocol ([29], [50]). The FBS was inactivated by heating at 56°C for 30 min with constant swirling.

[2] = tested on: K. pneumoniae; assay: Checkerboard assay (antibiotic potentiation); type: cell-based, Klebsiella pneumoniae; conditions: for MICantibiotic + compound: antibiotic MIC with 8 µg/mL (5 µM) compound 1; for MICantibiotic: antibiotic alone
Description: as §1, §2

[3] = tested on: E. cloacae; assay: Checkerboard assay (antibiotic potentiation); type: cell-based, Enterobacter cloacae; conditions: E. cloacae 121887 (colistin-resistant)
Description: (§3) The interaction between the compounds and the antibiotics was evaluated using the fractional inhibitory concentration (FIC) index. FIC indices of ≤0.5 is synergistic, 0.5 < × ≤ 4 is additive, whereas >4 is antagonistic ([34]). […] .
(§4) The bacterial isolates were acquired from ATCC or the Canadian Ward Surveillance (CANWARD) study ([56]). CANWARD isolates were collected from infected patients admitted to participating medical centers across Canada.
(§5) The antibiotic and compounds were serially diluted 2-fold in CAMHB along the x- and y-axis, respectively, on a 96-well plate that was subsequently incubated with equal volumes of bacterial inoculum overnight at 37°C. Wells containing only media were used as negative controls, and wells containing only bacteria were used as positive controls. Synergy was measured by the FIC index, which is the summation of the individual FICs of the antibiotic and the compound. The FIC is calculated by dividing the MIC of one agent in the presence of another by the MIC of the agent alone. Turbidity was confirmed with a Molecular Devices (United States) EMax Plus microplate reader at a wavelength of 590 nm. The FBS studies were conducted by following a previously published protocol ([29], [50]). The FBS was inactivated by heating at 56°C for 30 min with constant swirling.

[4] = tested on: MDR Gram-negative bacteria clinical isolates; assay: Checkerboard assay, summary over strains; type: cell-based; conditions: of all 14 clinical isolates; number (%)
Description: as §1, §5

[5] = tested on: E. coli; assay: Checkerboard assay (antibiotic potentiation); type: cell-based, Escherichia coli; conditions: for Interpretation: antibiotic + compound 1; for MICantibiotic + compound: antibiotic MIC with 8 µg/mL (5 µM) compound 1; for MICantibiotic: antibiotic alone; for Potentiation: of antibiotic by 8 µg/mL (5 µM) compound 1
Description: as §1, §2

[6] = tested on: A. baumannii; assay: Checkerboard assay (antibiotic potentiation); type: cell-based, Acinetobacter baumannii; set-up: key to FIC index: sum of FICs; ≤0.5 synergistic, 0.5–4 additive, >4 antagonistic; conditions: for MICantibiotic: antibiotic alone
Description: as §3, §4, §5

[7] = P. aeruginosa 262-101856, antibiotic + compound 1
[8] = P. aeruginosa 264-105354, antibiotic + compound 1
[9] = P. aeruginosa 114228 (colistin-resistant), antibiotic + compound 1
[10] = K. pneumoniae 113250 (colistin-resistant)
[11] = E. coli 94393 (colistin-resistant)
[12] = E. coli 94474 (colistin-resistant)
[13] = A. baumannii 110193, antibiotic + compound 1
[14] = A. baumannii ATCC 17978, antibiotic + compound 1

## CN(C)c1ccc(O)c2c1C[C@H]1C[C@H]3[C@H](N(C)C)C(O)=C(C(N)=O)C(=O)[C@@]3(O)C(O)=C1C2=O [Minocycline]
[1]; P. aeruginosa 259-96916, antibiotic + compound 1
  Interpretation: Synergy (FIC indices of ≤0.5 is synergistic)
[1]; P. aeruginosa 259-96916, antibiotic MIC with 8 µg/mL (5 µM) compound 1
  MICantibiotic + compound: 0.5 µg/mL
[1]; P. aeruginosa 259-96916
  MICantibiotic: 64 µg/mL
[1]; P. aeruginosa 259-96916, of antibiotic by 8 µg/mL (5 µM) compound 1
  Potentiation: 128 fold
[1]; [7]
  FIC index: x < 0.078
  Interpretation: Synergy (FIC indices of ≤0.5 is synergistic)
[1]; P. aeruginosa 262-101856, antibiotic MIC with 8 µg/mL (5 µM) compound 1
  MICantibiotic + compound: 2 µg/mL
[1]; P. aeruginosa 262-101856
  MICantibiotic: >128 µg/mL
[1]; P. aeruginosa 262-101856, of antibiotic by 8 µg/mL (5 µM) compound 1
  Potentiation: ≥128-fold
[1]; [8]
  FIC index: x < 0.070
  Interpretation: Synergy (FIC indices of ≤0.5 is synergistic)
[1]; P. aeruginosa 264-105354, antibiotic MIC with 8 µg/mL (5 µM) compound 1
  MICantibiotic + compound: 0.5 µg/mL
[1]; P. aeruginosa 264-105354
  MICantibiotic: >64 µg/mL
[1]; P. aeruginosa 264-105354, of antibiotic by 8 µg/mL (5 µM) compound 1
  Potentiation: ≥256-fold
[1]; P. aeruginosa 101243 (colistin-resistant), antibiotic + compound 1
  Interpretation: Synergy (FIC indices of ≤0.5 is synergistic)
[1]; P. aeruginosa 101243 (colistin-resistant), antibiotic MIC with 8 µg/mL (5 µM) compound 1
  MICantibiotic + compound: 4 µg/mL
[1]; P. aeruginosa 101243 (colistin-resistant)
  MICantibiotic: 16 µg/mL
[1]; P. aeruginosa 101243 (colistin-resistant), of antibiotic by 8 µg/mL (5 µM) compound 1
  Potentiation: 4 fold
[1]; [9]
  FIC index: x < 0.313
  Interpretation: Synergy (FIC indices of ≤0.5 is synergistic)
[1]; P. aeruginosa 114228 (colistin-resistant), antibiotic MIC with 8 µg/mL (5 µM) compound 1
  MICantibiotic + compound: 16 µg/mL
[1]; P. aeruginosa 114228 (colistin-resistant)
  MICantibiotic: >64 µg/mL
[1]; P. aeruginosa 114228 (colistin-resistant), of antibiotic by 8 µg/mL (5 µM) compound 1
  Potentiation: ≥8-fold
[1]; P. aeruginosa PAO1, antibiotic + compound 1
  Interpretation: Synergy (FIC indices of ≤0.5 is synergistic)
[1]; P. aeruginosa PAO1, antibiotic + compound 3
  Interpretation: Additive (0.5 < × ≤ 4 is additive)
[1]; P. aeruginosa PAO1, antibiotic MIC with 8 µg/mL (5 µM) compound 1
  MICantibiotic + compound: 0.5 µg/mL
[1]; P. aeruginosa PAO1, antibiotic MIC with 8 µg/mL (5 µM) compound 3
  MICantibiotic + compound: 64 µg/mL
[1]; P. aeruginosa PAO1
  MICantibiotic: 64 µg/mL and 32 µg/mL
[1]; P. aeruginosa PAO1, of antibiotic by 8 µg/mL (5 µM) compound 1
  Potentiation: 64 fold
[1]; P. aeruginosa PAO1, of antibiotic by 8 µg/mL (5 µM) compound 3
  Potentiation: 1 fold
[2]; [10]
  MICantibiotic + compound: >4 µg/mL
  MICantibiotic: >4 µg/mL
[2]; K. pneumoniae 116381, antibiotic + compound 1
  Interpretation: Synergy (FIC indices of ≤0.5 is synergistic)
[2]; K. pneumoniae 116381
  MICantibiotic + compound: 4 µg/mL
  MICantibiotic: 128 µg/mL
[2]; K. pneumoniae 116381, of antibiotic by 8 µg/mL (5 µM) compound 1
  Potentiation: 32 fold
[3]; antibiotic + compound 1
  Interpretation: Additive (0.5 < × ≤ 4 is additive)
[3]; antibiotic MIC with 8 µg/mL (5 µM) compound 1
  MICantibiotic + compound: 0.5 µg/mL
[3]; antibiotic alone
  MICantibiotic: 0.5 µg/mL
[3]; of antibiotic by 8 µg/mL (5 µM) compound 1
  Potentiation: 1 fold
[4]
  clinical isolates in which the antibiotic was synergized by compound 1: 8 (57%) strains
[5]; [11]
  Interpretation: Synergy (FIC indices of ≤0.5 is synergistic)
  MICantibiotic + compound: 0.125 µg/mL
  MICantibiotic: 0.5 µg/mL
  Potentiation: 4 fold
[5]; [12]
  Interpretation: Synergy (FIC indices of ≤0.5 is synergistic)
  MICantibiotic + compound: 8 µg/mL
  MICantibiotic: 64 µg/mL
  Potentiation: 8 fold
[6]; A. baumannii 92247 (colistin-resistant), antibiotic + compound 1
  Interpretation: Additive (0.5 < × ≤ 4 is additive)
[6]; A. baumannii 92247 (colistin-resistant), antibiotic MIC with 4 µg/mL (2 µM) compound 1
  MICantibiotic + compound: 0.25 µg/mL
[6]; A. baumannii 92247 (colistin-resistant)
  MICantibiotic: 0.25 µg/mL
[6]; A. baumannii 92247 (colistin-resistant), of antibiotic by 4 µg/mL (2 µM) compound 1
  Potentiation: 1 fold
[6]; [13]
  FIC index: 0.75
  Interpretation: Additive (0.5 < × ≤ 4 is additive)
[6]; A. baumannii 110193, antibiotic MIC with 4 µg/mL (2 µM) compound 1
  MICantibiotic + compound: 2 µg/mL
[6]; A. baumannii 110193
  MICantibiotic: 2 µg/mL
[6]; A. baumannii 110193, of antibiotic by 4 µg/mL (2 µM) compound 1
  Potentiation: 1 fold
[6]; A. baumannii AB027, antibiotic + compound 1
  Interpretation: Additive (0.5 < × ≤ 4 is additive)
[6]; A. baumannii AB027, antibiotic MIC with 4 µg/mL (2 µM) compound 1
  MICantibiotic + compound: 1 µg/mL
[6]; A. baumannii AB027
  MICantibiotic: 2 µg/mL
[6]; A. baumannii AB027, of antibiotic by 4 µg/mL (2 µM) compound 1
  Potentiation: 2 fold
[6]; A. baumannii AB031, antibiotic + compound 1
  Interpretation: Additive (0.5 < × ≤ 4 is additive)
[6]; A. baumannii AB031, antibiotic MIC with 4 µg/mL (2 µM) compound 1
  MICantibiotic + compound: 1 µg/mL
[6]; A. baumannii AB031
  MICantibiotic: 2 µg/mL
[6]; A. baumannii AB031, of antibiotic by 4 µg/mL (2 µM) compound 1
  Potentiation: 2 fold
[6]; [14]
  FIC index: 0.254
  Interpretation: Synergy (FIC indices of ≤0.5 is synergistic)
[6]; A. baumannii ATCC 17978, antibiotic + compound 3
  Interpretation: Additive (0.5 < × ≤ 4 is additive)
[6]; A. baumannii ATCC 17978, antibiotic MIC with 8 µg/mL (5 µM) compound 3
  MICantibiotic + compound: 0.125 µg/mL
[6]; A. baumannii ATCC 17978, antibiotic MIC with ¼ MIC (≤5 µM) of compound 1
  MICantibiotic + compound: 0.004 µg/mL
[6]; A. baumannii ATCC 17978, of antibiotic by 8 µg/mL (5 µM) compound 3
  Potentiation: 1 fold
[6]; A. baumannii ATCC 17978, of antibiotic by ¼ MIC (≤5 µM) of compound 1
  Potentiation: 256 fold
